Measurements reported in patent US10030020B2, “Spirocycle compounds and methods of making and using same” (Abide Therapeutics, Inc., priority 2016, dated 2018).

Experiments:
MAGL [1] = target: T1, MAGL (Mus musculus (Mouse), UniProt O35678); test: In vitro competitive activity-based protein profiling (mouse brain membrane fraction or cell lysates), MAGL band; format: biochemical; conditions: mouse proteome; for inhibition at 1 µM: read-out: MAGL % Inh 1 μM (mouse); for IC50: competitive ABPP
Procedure: In Vitro Competitive Activity-Based Protein Profiling.
Proteomes (mouse brain membrane fraction or cell lysates) (50 μL, 1.0 mg/mL total protein concentration) were preincubated with varying concentrations of inhibitors at 37° C. After 30 min, FP—Rh (1.0 μL, 50 μM in DMSO) was added and the mixture was incubated for another 30 min at 37° C. Reactions were quenched with SDS loading buffer (50 μL-4×) and run on SDS-PAGE.

ABHD6 [2] = target: T2, ABHD6 (Mus musculus (Mouse), UniProt Q8R2Y0); test: In vitro competitive activity-based protein profiling (mouse brain membrane fraction or cell lysates), ABHD6 band; format: biochemical; conditions: mouse proteome; for inhibition at 1 µM: read-out: ABHD6 % Inh 1 μM (mouse); for IC50: competitive ABPP
T2 sequence (Q8R2Y0 whole entry): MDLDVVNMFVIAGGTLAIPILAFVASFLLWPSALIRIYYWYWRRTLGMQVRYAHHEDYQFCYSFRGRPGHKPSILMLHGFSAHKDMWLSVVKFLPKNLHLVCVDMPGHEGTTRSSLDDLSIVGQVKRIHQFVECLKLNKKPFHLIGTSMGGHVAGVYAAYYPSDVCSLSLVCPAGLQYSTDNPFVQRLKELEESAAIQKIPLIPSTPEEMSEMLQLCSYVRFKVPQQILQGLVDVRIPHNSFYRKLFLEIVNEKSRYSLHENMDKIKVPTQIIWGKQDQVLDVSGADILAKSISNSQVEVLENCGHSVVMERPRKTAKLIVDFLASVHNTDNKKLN
Method in brief: (§1)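 Residual hydrolase activity was measured as gel band fluorescence after FP-Rh labelling (30 min, 37° C) of proteomes pretreated 30 min at 37° C with inhibitor.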

FAAH [3] = target: T3, FAAH (Mus musculus (Mouse), UniProt O08914); test: In vitro competitive activity-based protein profiling (mouse brain membrane fraction or cell lysates), FAAH band; format: biochemical; conditions: mouse proteome; for inhibition at 1 µM: read-out: FAAH % Inh 1 μM (mouse); for IC50: competitive ABPP
T3 sequence (O08914 whole entry): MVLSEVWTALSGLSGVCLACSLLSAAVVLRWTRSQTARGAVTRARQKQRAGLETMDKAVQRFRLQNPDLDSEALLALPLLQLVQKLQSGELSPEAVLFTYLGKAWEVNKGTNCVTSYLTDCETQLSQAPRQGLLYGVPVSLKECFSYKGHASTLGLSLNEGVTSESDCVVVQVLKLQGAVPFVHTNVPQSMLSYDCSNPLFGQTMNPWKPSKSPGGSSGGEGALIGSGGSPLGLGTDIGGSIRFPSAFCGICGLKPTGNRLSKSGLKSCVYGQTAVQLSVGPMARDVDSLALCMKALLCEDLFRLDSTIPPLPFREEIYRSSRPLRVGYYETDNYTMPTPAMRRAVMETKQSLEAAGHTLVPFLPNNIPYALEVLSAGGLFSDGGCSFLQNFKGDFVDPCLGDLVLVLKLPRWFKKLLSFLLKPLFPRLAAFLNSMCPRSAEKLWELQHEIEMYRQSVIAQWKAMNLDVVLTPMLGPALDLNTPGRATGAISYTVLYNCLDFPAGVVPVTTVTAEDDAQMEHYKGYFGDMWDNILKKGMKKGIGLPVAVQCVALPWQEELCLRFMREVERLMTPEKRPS
Method in brief: as §1

MAGL [4] = target: T1, MAGL; test: Mouse brain proteomes from inhibitor treated mice (oral gavage, sacrificed 4 h after administration, ABPP analysis); format: in vivo, mouse (C57Bl/6J); conditions: 5 mg/kg oral gavage
Procedure: (§2) Preparation of Mouse Brain Proteomes from Inhibitor Treated Mice.
(§3) Inhibitors were administered to wild-type C57Bl/6J by oral gavage in a vehicle, e.g. PEG400/Ethanol/PBS (7/2/1). Each animal was sacrificed 4 h following administration and brain proteomes were prepared and analyzed according to previously established methods (See Niphakis, M. J., et al. (2011) ACS Chem. Neurosci. and Long, J. Z., et al. Nat. Chem. Biol. 5:37-44). Data from this assay is shown in Table 2 (% inhibition at 5 mg/kg).

FAAH [5] = target: T3, FAAH; test: Mouse brain proteomes from inhibitor treated mice (oral gavage, sacrificed 4 h after administration, ABPP analysis), FAAH; format: in vivo, mouse (C57Bl/6J); conditions: 5 mg/kg oral gavage
Procedure: as §2, §3

ABHD6 [6] = target: T2, ABHD6; test: Mouse brain proteomes from inhibitor treated mice (oral gavage, sacrificed 4 h after administration, ABPP analysis), ABHD6; format: in vivo, mouse (C57Bl/6J); conditions: 5 mg/kg oral gavage
Procedure: as §2, §3

T1 sequence (O35678 whole entry): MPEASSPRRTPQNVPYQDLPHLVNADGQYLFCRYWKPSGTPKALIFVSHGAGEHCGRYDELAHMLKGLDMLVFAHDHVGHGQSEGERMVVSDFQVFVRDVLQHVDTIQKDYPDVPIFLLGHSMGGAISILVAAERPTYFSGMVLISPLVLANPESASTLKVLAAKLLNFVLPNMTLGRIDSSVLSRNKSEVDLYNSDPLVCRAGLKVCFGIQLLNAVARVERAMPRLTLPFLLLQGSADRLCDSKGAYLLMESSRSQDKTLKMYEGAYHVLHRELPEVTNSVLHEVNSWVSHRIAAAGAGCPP

Row | SMILES | inhibition at 1 µM (MAGL [1]) [%] | IC50 (MAGL [1]) [nM] | inhibition at 1 µM (ABHD6 [2]) [%] | IC50 (ABHD6 [2]) [nM] | inhibition at 1 µM (FAAH [3]) [%] | IC50 (FAAH [3]) [nM] | MAGL % Inh 5 mg/kg (mouse) (MAGL [4]) | FAAH % Inh 5 mg/kg (mouse) (FAAH [5]) | ABHD6 % Inh 5 mg/kg (mouse) (ABHD6 [6])
1 | CC1(C)CC2(CCN(C(=O)OC(C(F)(F)F)C(F)(F)F)CC2)CN1Cc1ccc(C(F)(F)F)cc1N1CCOCC1 [Example 51, 1,1,1,3,3,3-Hexafluoropropan-2-yl 3,3-dimethyl-2-(2-morpholino-4-(trifluoromethyl)benzyl)-2,8-diazaspiro[4.5]decane-8-carboxylate] | > 75 | < 100 | < 25 | > 1000 | < 25 | > 1000 | ## (## is equal to or greater than 25% but less than 75%) | # (# is <25%) | # (# is <25%)
2 | O=C(OC(C(F)(F)F)C(F)(F)F)N1CCC2(CCCN2Cc2ccccc2Cl)CC1 [Example 60, 1,1,1,3,3,3-Hexafluoropropan-2-yl 1-(2-chlorobenzyl)-1,8-diazaspiro[4.5]decane-8-carboxylate] | > 75 | < 100 | < 25 | > 1000 | < 25 | > 1000 | ### (### is ≥75%) | ## (## is equal to or greater than 25% but less than 75%) | # (# is <25%)
3 | Cc1ccc(CN2CCCC23CCN(C(=O)OC(C(F)(F)F)C(F)(F)F)CC3)cc1C(F)(F)F [Example 180, 1,1,1,3,3,3-Hexafluoropropan-2-yl 1-(4-methyl-3-(trifluoromethyl)benzyl)-1,8-diazaspiro[4.5]decane-8-carboxylate] | > 75 | < 100 | < 25 | > 1000 | < 25 | > 1000 | ### (### is ≥75%) | ## (## is equal to or greater than 25% but less than 75%) | ## (## is equal to or greater than 25% but less than 75%)
4 | Cc1c(CN2CCCC23CCN(C(=O)OC(C(F)(F)F)C(F)(F)F)CC3)cccc1N1CCCCC1 [Example 84, 1,1,1,3,3,3-Hexafluoropropan-2-yl 1-(2-methyl-3-(piperidin-1-yl)benzyl)-1,8-diazaspiro[4.5]decane-8-carboxylate] | > 75 | 100 to 1000 | < 25 | > 1000 | < 25 | > 1000 | ### (### is ≥75%) | # (# is <25%) | # (# is <25%)
5 | O=C(OC(C(F)(F)F)C(F)(F)F)N1CCC2(CCCN2Cc2ccc(N3CCCC3)c(C(F)(F)F)c2)CC1 [Example 130, 1,1,1,3,3,3-Hexafluoropropan-2-yl 1-(4-(pyrrolidin-1-yl)-3-(trifluoromethyl)benzyl)-1,8-diazaspiro[4.5]decane-8-carboxylate] | > 75 | < 100 | 25 to 75 | > 1000 | < 25 | > 1000 | ### (### is ≥75%) | # (# is <25%) | # (# is <25%)
6 | CS(=O)(=O)NC1CCN(c2cc(C(F)(F)F)ccc2CN2CCCC23CCN(C(=O)OC(C(F)(F)F)C(F)(F)F)CC3)CC1 [Example 94, 1,1,1,3,3,3-Hexafluoropropan-2-yl 1-(2-(4-(methylsulfonamido)piperidin-1-yl)-4-(trifluoromethyl)benzyl)-1,8-diazaspiro[4.5]decane-8-carboxylate] | > 75 | < 100 | < 25 | > 1000 | < 25 | > 1000 | # (# is <25%) | # (# is <25%) | # (# is <25%)
7 | O=C(OC(C(F)(F)F)C(F)(F)F)N1CCC2(CCCN2Cc2ccc(Cl)cc2N2CCN(CCF)CC2)CC1 [Example 19, 1,1,1,3,3,3-Hexafluoropropan-2-yl 1-(4-chloro-2-(4-(2-fluoroethyl)piperazin-1-yl)benzyl)-1,8-diazaspiro[4.5]decane-8-carboxylate] |  | < 100 |  | > 1000 |  | > 1000 | ## (## is equal to or greater than 25% but less than 75%) | # (# is <25%) | # (# is <25%)
8 | CC1(C)CC2(CCN(C(=O)OC(C(F)(F)F)C(F)(F)F)CC2)CN1Cc1ccc(Cl)cc1 [Example 48, 1,1,1,3,3,3-Hexafluoropropan-2-yl 2-(4-chlorobenzyl)-3,3-dimethyl-2,8-diazaspiro[4.5]decane-8-carboxylate] | > 75 | < 100 | ≥ 75 | 100 to 1000 | < 25 | > 1000 | ### (### is ≥75%) | # (# is <25%) | ## (## is equal to or greater than 25% but less than 75%)

The remaining lines, values ahead:

Row | inhibition at 1 µM (MAGL [1]) [%] | IC50 (MAGL [1]) [nM] | inhibition at 1 µM (ABHD6 [2]) [%] | IC50 (ABHD6 [2]) [nM] | inhibition at 1 µM (FAAH [3]) [%] | IC50 (FAAH [3]) [nM] | MAGL % Inh 5 mg/kg (mouse) (MAGL [4]) | FAAH % Inh 5 mg/kg (mouse) (FAAH [5]) | ABHD6 % Inh 5 mg/kg (mouse) (ABHD6 [6]) | SMILES
9 | > 75 | < 100 | < 25 | > 1000 | < 25 | > 1000 | ### (### is ≥75%) | # (# is <25%) | # (# is <25%) | O=C(OC(C(F)(F)F)C(F)(F)F)N1CCC2(CCCN2Cc2cc(N3CCOCC3)cc(C(F)(F)F)c2)CC1 [Example 35, 1,1,1,3,3,3-Hexafluoropropan-2-yl 1-(3-morpholino-5-(trifluoromethyl)benzyl)-1,8-diazaspiro[4.5]decane-8-carboxylate]
10 |  | < 100 |  | > 1000 |  | > 1000 | ### (### is ≥75%) | # (# is <25%) | # (# is <25%) | O=C(OC(C(F)(F)F)C(F)(F)F)N1CCC2(CCCN2Cc2ccc(Cl)c(OCCF)c2)CC1 [Example 28, 1,1,1,3,3,3-Hexafluoropropan-2-yl 1-(4-chloro-3-(2-fluoroethoxy)benzyl)-1,8-diazaspiro[4.5]decane-8-carboxylate]
11 | > 75 | < 100 | < 25 | > 1000 | < 25 | > 1000 | ### (### is ≥75%) | # (# is <25%) | # (# is <25%) | O=C(OC(C(F)(F)F)C(F)(F)F)N1CCC2(CCCN2Cc2ccc(C(F)(F)F)cc2N2CCC(F)CC2)CC1 [Example 91, 1,1,1,3,3,3-Hexafluoropropan-2-yl 1-(2-(4-fluoropiperidin-1-yl)-4-(trifluoromethyl)benzyl)-1,8-diazaspiro[4.5]decane-8-carboxylate]
12 | > 75 | < 100 | < 25 | > 1000 | < 25 | > 1000 | ### (### is ≥75%) | # (# is <25%) | # (# is <25%) | O=C(OC(C(F)(F)F)C(F)(F)F)N1CCC2(CCCN2Cc2cccc(N3CCOCC3)c2Cl)CC1 [Example 79, 1,1,1,3,3,3-Hexafluoropropan-2-yl 1-(2-chloro-3-morpholinobenzyl)-1,8-diazaspiro[4.5]decane-8-carboxylate]
